Results published in PubChem BioAssay AID256 (DTP/NCI, 2004).
Several values for one entry are separate records, joined by “and”; a condition that tells them apart may be missing. Equal entries are not always repeated. Inconclusive results and toxic doses are left out.

Test system: CD2F1 mice, L1210 leukemia ip, survival T/C
Experiment: NCI In Vivo Anticancer Drug Screen. Data for tumor model L1210 Leukemia (intraperitoneal) in CD2F1 (CDF1) mice
Conditions: higher = longer survival
Procedure, shortened: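 Activity against a transplanted murine tumor was judged by comparing the compound group with a vehicle group. The outcome in the treated animals was divided by that in the controls.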

[1] = endpoint: mean survival time, dose: 100.0 mg/kg/injection, schedule: Q01DX009 (ip), vehicle: saline with Tween-80
[2] = endpoint: mean survival time, dose: 100.0 mg/kg/injection, schedule: Q04DX003 (ip), vehicle: saline with Tween-80
[3] = endpoint: mean survival time, dose: 200.0 mg/kg/injection, schedule: Q01DX009 (ip), vehicle: saline with Tween-80
[4] = endpoint: mean survival time, dose: 200.0 mg/kg/injection, schedule: Q04DX003 (ip), vehicle: saline with Tween-80
[5] = endpoint: mean survival time, dose: 400.0 mg/kg/injection, schedule: Q04DX003 (ip), vehicle: saline with Tween-80
[6] = endpoint: mean survival time, dose: 100.0 mg/kg/injection, schedule: Q04DX003 (ip), vehicle: saline
[7] = endpoint: mean survival time, dose: 200.0 mg/kg/injection, schedule: Q04DX003 (ip), vehicle: saline
[8] = endpoint: mean survival time, dose: 400.0 mg/kg/injection, schedule: Q04DX003 (ip), vehicle: saline
[9] = endpoint: mean survival time, dose: 75.0 mg/kg/injection, schedule: Q01DX001 (ip), vehicle: saline
[10] = endpoint: mean survival time, dose: 150.0 mg/kg/injection, schedule: Q01DX001 (ip), vehicle: saline
[11] = endpoint: mean survival time, dose: 12.5 mg/kg/injection, schedule: Q01DX009 (ip), vehicle: saline with Tween-80
[12] = endpoint: mean survival time, dose: 25.0 mg/kg/injection, schedule: Q01DX009 (ip), vehicle: saline with Tween-80
[13] = endpoint: mean survival time, dose: 50.0 mg/kg/injection, schedule: Q01DX009 (ip), vehicle: saline with Tween-80
[14] = endpoint: mean survival time, dose: 12.5 mg/kg/injection, schedule: Q01DX005 (ip), vehicle: distilled water + Tween-80
[15] = endpoint: mean survival time, dose: 25.0 mg/kg/injection, schedule: Q01DX005 (ip), vehicle: distilled water + Tween-80
[16] = endpoint: mean survival time, dose: 50.0 mg/kg/injection, schedule: Q01DX005 (ip), vehicle: distilled water + Tween-80
[17] = endpoint: mean survival time, dose: 100.0 mg/kg/injection, schedule: Q01DX005 (ip), vehicle: distilled water + Tween-80
[18] = endpoint: mean survival time, dose: 200.0 mg/kg/injection, schedule: Q01DX005 (ip), vehicle: distilled water + Tween-80
[19] = endpoint: mean survival time, dose: 100.0 mg/kg/injection, schedule: Q01DX001 (ip), vehicle: saline with Tween-80
[20] = endpoint: mean survival time, dose: 200.0 mg/kg/injection, schedule: Q01DX001 (ip), vehicle: saline with Tween-80

Nc1nc(N)c2cc(CNc3ccc(C(=O)NC(CC(=O)O)CC(=O)O)cc3)ccc2n1
T/C (endpoint: mean survival time, dose: 25.0 mg/kg/injection, schedule: Q01DX009 (ip), vehicle: Klucel (hydroxypropylcellulose) (HPC)): 160 % of control | T/C (endpoint: mean survival time, dose: 50.0 mg/kg/injection, schedule: Q01DX009 (ip), vehicle: Klucel (hydroxypropylcellulose) (HPC)): 162 % of control and 206 % of control | T/C (endpoint: mean survival time, dose: 200.0 mg/kg/injection, schedule: Q01DX009 (ip), vehicle: Klucel (hydroxypropylcellulose) (HPC)): 114 % of control and 103 % of control | T/C (endpoint: mean survival time, dose: 400.0 mg/kg/injection, schedule: Q01DX009 (ip), vehicle: Klucel (hydroxypropylcellulose) (HPC)): 96 % of control and 98 % of control

NC(=O)Cc1c[nH]c2cc(O)ccc12
T/C [1]: 93 % of control | T/C [2]: 97 % of control | T/C [3]: 95 % of control | T/C [4]: 97 % of control | T/C (endpoint: mean survival time, dose: 400.0 mg/kg/injection, schedule: Q01DX009 (ip), vehicle: saline with Tween-80): 100 % of control | T/C [5]: 95 % of control

CC(C)O.CC(C)O.CC(C)O.[La]
T/C [6]: 97 % of control | T/C [7]: 87 % of control | T/C [8]: 89 % of control

C/C=C(/c1ccccc1)c1ccc(N(C)C)cc1
T/C [2]: 98 % of control | T/C [4]: 91 % of control | T/C [5]: 91 % of control

CC/S(=N\S(=O)(=O)c1ccc(C)cc1)c1ccccc1 (stereo not given)
T/C [2]: 104 % of control | T/C [4]: 108 % of control | T/C [5]: 98 % of control

O=C(NC1CCCCC1)NC1CCC(CC2CCCCC2)CC1 (stereo not given)
T/C [2]: 98 % of control | T/C [4]: 96 % of control | T/C [5]: 96 % of control

CN(C)c1ccc(N=Nc2ccc(S(=O)(=O)O)cc2)cc1.CN(C)c1ccc(N=Nc2ccc(S(=O)(=O)O)cc2)cc1.O.O.[NH-]C1CCCCC1[NH-].[Pt+2]
T/C (endpoint: median survival time, dose: 3.12 mg/kg/injection, schedule: Q04DX003 (ip), vehicle: saline): 96 % of control | T/C (endpoint: median survival time, dose: 6.25 mg/kg/injection, schedule: Q04DX003 (ip), vehicle: saline): 106 % of control | T/C (endpoint: median survival time, dose: 12.5 mg/kg/injection, schedule: Q04DX003 (ip), vehicle: saline): 101 % of control | T/C (endpoint: median survival time, dose: 25.0 mg/kg/injection, schedule: Q04DX003 (ip), vehicle: saline): 100 % of control | T/C (endpoint: median survival time, dose: 50.0 mg/kg/injection, schedule: Q04DX003 (ip), vehicle: saline): 98 % of control | T/C (endpoint: median survival time, dose: 100.0 mg/kg/injection, schedule: Q04DX003 (ip), vehicle: saline): 105 % of control | T/C (endpoint: median survival time, dose: 200.0 mg/kg/injection, schedule: Q04DX003 (ip), vehicle: saline): 115 % of control

C/C(=N\n1cc(-c2ccccc2)nc1N)c1ccccc1
T/C [9]: 91 % of control | T/C [10]: 97 % of control | T/C (endpoint: mean survival time, dose: 300.0 mg/kg/injection, schedule: Q01DX001 (ip), vehicle: saline): 93 % of control

O=NN(CCF)C(=O)NC1CCC(NC(=O)N(CCF)N=O)CC1 (stereo not given)
T/C (endpoint: mean survival time, dose: 3.13 mg/kg/injection, schedule: Q01DX009 (ip), vehicle: saline with Tween-80): 117 % of control | T/C [11]: 240 % of control | T/C [12]: 273 % of control and 289 % of control | T/C [13]: 234 % of control

O=C(CBr)Nc1ccc2[nH]c3cnccc3c2c1
T/C (endpoint: mean survival time, dose: 100.0 mg/kg/injection, schedule: Q04DX002 (ip), vehicle: saline with Tween-80): 101 % of control | T/C (endpoint: mean survival time, dose: 200.0 mg/kg/injection, schedule: Q04DX002 (ip), vehicle: saline with Tween-80): 104 % of control | T/C (endpoint: mean survival time, dose: 400.0 mg/kg/injection, schedule: Q04DX002 (ip), vehicle: saline with Tween-80): 97 % of control

O=Cc1ccc[nH]1
T/C (endpoint: mean survival time, dose: 100.0 mg/kg/injection, schedule: Q01DX001 (ip), vehicle: saline): 94 % of control | T/C [6]: 104 % of control | T/C (endpoint: mean survival time, dose: 200.0 mg/kg/injection, schedule: Q01DX001 (ip), vehicle: saline): 100 % of control | T/C [7]: 101 % of control | T/C (endpoint: mean survival time, dose: 400.0 mg/kg/injection, schedule: Q01DX001 (ip), vehicle: saline): 100 % of control | T/C [8]: 108 % of control

Nc1ncnc2c1nc(NCc1ccccc1)n2C1OC(CO)C(O)C1O (stereo not given)
T/C [14]: 93 % of control | T/C [15]: 100 % of control and 95 % of control | T/C [16]: 92 % of control and 101 % of control | T/C [17]: 99 % of control and 93 % of control | T/C [18]: 99 % of control and 100 % of control | T/C (endpoint: mean survival time, dose: 400.0 mg/kg/injection, schedule: Q01DX005 (ip), vehicle: distilled water + Tween-80): 89 % of control

NCCCC(NN)C(=O)O (stereo not given)
T/C (endpoint: mean survival time, dose: 7.5 mg/kg/injection, schedule: Q01DX009 (ip), vehicle: saline): 100 % of control | T/C (endpoint: mean survival time, dose: 15.0 mg/kg/injection, schedule: Q01DX009 (ip), vehicle: saline): 97 % of control | T/C (endpoint: mean survival time, dose: 30.0 mg/kg/injection, schedule: Q01DX009 (ip), vehicle: saline): 94 % of control

Cc1[se]c2ccccc2[n+]1C
T/C [9]: 98 % of control | T/C [10]: 107 % of control

COc1ccc(N=N/N=c2\sc3cc(OC)ccc3n2C)cc1
T/C (endpoint: median survival time, dose: 7.5 mg/kg/injection, schedule: Q01DX005 (ip), vehicle: saline with Tween-80): 100 % of control | T/C (endpoint: median survival time, dose: 15.0 mg/kg/injection, schedule: Q01DX005 (ip), vehicle: saline with Tween-80): 105 % of control | T/C (endpoint: median survival time, dose: 30.0 mg/kg/injection, schedule: Q01DX005 (ip), vehicle: saline with Tween-80): 108 % of control | T/C (endpoint: median survival time, dose: 42.5 mg/kg/injection, schedule: Q01DX005 (ip), vehicle: saline with Tween-80): 102 % of control | T/C (endpoint: median survival time, dose: 60.0 mg/kg/injection, schedule: Q01DX005 (ip), vehicle: saline with Tween-80): 105 % of control | T/C (endpoint: median survival time, dose: 85.0 mg/kg/injection, schedule: Q01DX005 (ip), vehicle: saline with Tween-80): 102 % of control | T/C (endpoint: median survival time, dose: 120.0 mg/kg/injection, schedule: Q01DX005 (ip), vehicle: saline with Tween-80): 104 % of control | T/C (endpoint: median survival time, dose: 170.0 mg/kg/injection, schedule: Q01DX005 (ip), vehicle: saline with Tween-80): 100 % of control

CN=S(=O)(OCCCCCOS(=O)(=NC)c1ccc(C)cc1)c1ccc(C)cc1 (stereo not given)
T/C (endpoint: mean survival time, dose: 0.39 mg/kg/injection, schedule: Q01DX009 (ip), vehicle: saline with Tween-80): 97 % of control | T/C (endpoint: mean survival time, dose: 0.78 mg/kg/injection, schedule: Q01DX009 (ip), vehicle: saline with Tween-80): 103 % of control | T/C (endpoint: mean survival time, dose: 1.56 mg/kg/injection, schedule: Q01DX009 (ip), vehicle: saline with Tween-80): 97 % of control | T/C (endpoint: mean survival time, dose: 3.12 mg/kg/injection, schedule: Q01DX009 (ip), vehicle: saline with Tween-80): 105 % of control | T/C (endpoint: mean survival time, dose: 6.25 mg/kg/injection, schedule: Q01DX009 (ip), vehicle: saline with Tween-80): 95 % of control and 100 % of control | T/C [11]: 97 % of control and 101 % of control | T/C [12]: 103 % of control | T/C [13]: 97 % of control | T/C [1]: 101 % of control | T/C [3]: 100 % of control

Nc1nc(=O)n(CCCOc2ccccc2NC(=O)c2cccc(S(=O)(=O)F)c2)cc1-c1ccc(Cl)c(Cl)c1
T/C [19]: 91 % of control | T/C [20]: 95 % of control | T/C (endpoint: mean survival time, dose: 400.0 mg/kg/injection, schedule: Q01DX001 (ip), vehicle: saline with Tween-80): 98 % of control

Cc1ccc(CCF)cc1
T/C [19]: 107 % of control | T/C [20]: 109 % of control

N#CC(C(=O)O)C1CCCCC1=O (stereo not given)
T/C (endpoint: median survival time, dose: 50.0 mg/kg/injection, schedule: Q04DX002 (ip), vehicle: saline with Tween-80): 100 % of control | T/C (endpoint: median survival time, dose: 100.0 mg/kg/injection, schedule: Q04DX002 (ip), vehicle: saline with Tween-80): 100 % of control | T/C (endpoint: median survival time, dose: 200.0 mg/kg/injection, schedule: Q04DX002 (ip), vehicle: saline with Tween-80): 100 % of control

CC(O)C1OC(n2cnc3c(N)ncnc32)CC1N (stereo not given)
T/C [14]: 101 % of control | T/C [15]: 103 % of control | T/C [16]: 100 % of control | T/C [17]: 100 % of control | T/C [18]: 100 % of control

CCCCn1cnc2c(=S)nc(N)[nH]c21
T/C [12]: 162 % of control | T/C [13]: 171 % of control | T/C (endpoint: mean survival time, dose: 50.0 mg/kg/injection, schedule: Q04DX003 (ip), vehicle: saline with Tween-80): 157 % of control
